Measured values reported in PubChem BioAssay (NCI).
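Five concentrations, 48 hours, 96-well plates. GI50 = concentration required for 50% inhibition of growth. TGI denotes the concentration required for complete inhibition of growth.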

What was measured:
Experiment in all cases: inhibition of tumour cell growth, NCI panel, 48 h
[1] = test system: A498 renal
[2] = test system: SR leukemia
[3] = test system: EKVX NSCLC
[4] = test system: LOX IMVI melanoma
[5] = test system: HL-60(TB) leukemia
[6] = test system: RXF 393 renal
[7] = test system: RPMI-8226 leukemia
[8] = test system: A549 NSCLC
[9] = test system: UACC-257 melanoma
[10] = test system: ACHN renal
[11] = test system: MCF7 breast
[12] = test system: NCI-H23 lung
[13] = test system: KM12 colon
[14] = test system: HCC-2998 colon
[15] = test system: SF-539 CNS
[16] = test system: K-562 leukemia
[17] = test system: MDA-MB-231 breast
[18] = test system: HOP-62 NSCLC
[19] = test system: U251 CNS
[20] = test system: SNB-75 CNS
[21] = test system: 786-0 renal
[22] = test system: DU-145 prostate
[23] = test system: OVCAR-3 ovarian
[24] = test system: PC-3 prostate
[25] = test system: OVCAR-8 ovarian
[26] = test system: HS 578T breast
[27] = test system: SF-268 CNS
[28] = test system: NCI-H460 lung
[29] = test system: HCT-116 colon
[30] = test system: HCT-15 colon
[31] = test system: BT-549 breast
[32] = test system: OVCAR-4 ovarian
[33] = test system: HOP-92 NSCLC
[34] = test system: COLO 205 colon
[35] = test system: SK-MEL-5 melanoma
[36] = test system: SW-620 colon
[37] = test system: MDA-MB-435
[38] = test system: M14 melanoma
[39] = test system: SK-MEL-28 melanoma
[40] = test system: TK-10 renal
[41] = test system: UACC-62 melanoma
[42] = test system: NCI-H226 lung
[43] = test system: OVCAR-5 ovarian
[44] = test system: IGROV1 ovarian
[45] = test system: SK-OV-3 ovarian
[46] = test system: MOLT-4 leukemia
[47] = test system: T-47D breast
[48] = test system: NCI/ADR-RES ovarian
[49] = test system: NCI-H522 lung
[50] = test system: SNB-19 CNS
[51] = test system: UO-31 renal
[52] = test system: HT29 colon
[53] = test system: CAKI-1 renal
[54] = test system: SN12C renal
[55] = test system: SF-295 CNS
[56] = test system: SK-MEL-2 melanoma
[57] = test system: MALME-3M melanoma

C[C@@]12CCC[C@@](C)(C(=O)O)C1CC[C@]13CC(=O)[C@](CO)(C1)[C@@H](O)CC32 (some centres undefined)
GI50 [1]: > 100 µM
TGI [1]: > 100 µM
GI50 [2]: > 100 µM
TGI [2]: > 100 µM
GI50 [3]: > 100 µM
TGI [3]: > 100 µM
GI50 [4]: > 100 µM
TGI [4]: > 100 µM
GI50 [5]: > 100 µM
TGI [5]: > 100 µM
GI50 [6]: > 100 µM
TGI [6]: > 100 µM
GI50 [7]: > 100 µM
TGI [7]: > 100 µM
GI50 [8]: > 100 µM
TGI [8]: > 100 µM
GI50 [9]: > 100 µM
TGI [9]: > 100 µM
GI50 [10]: > 100 µM
TGI [10]: > 100 µM
GI50 [11]: > 100 µM
TGI [11]: > 100 µM
GI50 [12]: > 100 µM
TGI [12]: > 100 µM
GI50 [13]: > 100 µM
TGI [13]: > 100 µM
GI50 [14]: > 100 µM
TGI [14]: > 100 µM
GI50 [15]: > 100 µM
TGI [15]: > 100 µM
GI50 [16]: > 100 µM
TGI [16]: > 100 µM
GI50 [17]: > 100 µM
TGI [17]: > 100 µM
GI50 [18]: > 100 µM
TGI [18]: > 100 µM
GI50 [19]: > 100 µM
TGI [19]: > 100 µM
GI50 [20]: > 100 µM
TGI [20]: > 100 µM
GI50 [21]: > 100 µM
TGI [21]: > 100 µM
GI50 [22]: > 100 µM
TGI [22]: > 100 µM
GI50 [23]: > 100 µM
TGI [23]: > 100 µM
GI50 [24]: > 100 µM
TGI [24]: > 100 µM
GI50 [25]: > 100 µM
TGI [25]: > 100 µM
GI50 [26]: > 100 µM
TGI [26]: > 100 µM
GI50 [27]: > 100 µM
TGI [27]: > 100 µM
GI50 [28]: > 100 µM
TGI [28]: > 100 µM
GI50 [29]: > 100 µM
TGI [29]: > 100 µM
GI50 [30]: > 100 µM
TGI [30]: > 100 µM
GI50 [31]: > 100 µM
TGI [31]: > 100 µM
GI50 [32]: > 100 µM
TGI [32]: > 100 µM
GI50 [33]: > 100 µM
TGI [33]: > 100 µM
GI50 [34]: > 100 µM
TGI [34]: > 100 µM
GI50 [35]: > 100 µM
TGI [35]: > 100 µM
GI50 [36]: > 100 µM
TGI [36]: > 100 µM
GI50 [37]: > 100 µM
TGI [37]: > 100 µM
GI50 [38]: > 100 µM
TGI [38]: > 100 µM
GI50 [39]: > 100 µM
TGI [39]: > 100 µM
GI50 [40]: > 100 µM
TGI [40]: > 100 µM
GI50 [41]: > 100 µM
TGI [41]: > 100 µM
GI50 [42]: > 100 µM
TGI [42]: > 100 µM
GI50 [43]: > 100 µM
TGI [43]: > 100 µM
GI50 [44]: > 100 µM
TGI [44]: > 100 µM
GI50 [45]: > 100 µM
TGI [45]: > 100 µM
GI50 [46]: > 100 µM
TGI [46]: > 100 µM
GI50 [47]: > 100 µM
TGI [47]: > 100 µM
GI50 [48]: > 100 µM
TGI [48]: > 100 µM
GI50 [49]: > 100 µM
TGI [49]: > 100 µM
GI50 [50]: > 100 µM
TGI [50]: > 100 µM
GI50 [51]: > 100 µM
TGI [51]: > 100 µM
GI50 [52]: > 100 µM
TGI [52]: > 100 µM
GI50 [53]: > 100 µM
TGI [53]: > 100 µM
GI50 [54]: > 100 µM
TGI [54]: > 100 µM
GI50 [55]: > 100 µM
TGI [55]: > 100 µM
GI50 [56]: > 100 µM
TGI [56]: > 100 µM
GI50 [57]: > 100 µM
TGI [57]: > 100 µM
